Measurements reported in the NIST ThermoML archive (doi:10.1016/j.fluid.2008.03.004).

Test: xn = mol fraction of the nth substance listed
Conditions: 101 kPa, Liquid; for speed of sound: Sing-around technique in a fixed-path interferometer

COC(C)(C)C [2-methoxy-2-methylpropane] + Cc1ccc(C)cc1
Conditions | mass density [kg/m3] | speed of sound [m/s]
305.65 K, x1 = 0.051 | 844.579 | –
305.65 K, x1 = 0.111 | 837.921 | –
305.65 K, x1 = 0.199 | 827.849 | –
305.65 K, x1 = 0.297 | 816.672 | –
305.65 K, x1 = 0.394 | 805.171 | –
305.65 K, x1 = 0.5 | 792.236 | –
305.65 K, x1 = 0.591 | 780.907 | –
305.65 K, x1 = 0.7 | 767.085 | –
305.65 K, x1 = 0.799 | 753.909 | –
305.65 K, x1 = 0.898 | 740.58 | –
305.65 K, x1 = 0.949 | 733.654 | –
305.65 K, x1 = 1 | 726.444 | –
308.15 K, x1 = 0.051 | 842.382 | 1255.6
308.15 K, x1 = 0.111 | 835.701 | 1241.2
308.15 K, x1 = 0.199 | 825.592 | 1218.5
308.15 K, x1 = 0.297 | 814.375 | 1193
308.15 K, x1 = 0.394 | 802.832 | 1166.6
308.15 K, x1 = 0.5 | 789.848 | 1136.9
308.15 K, x1 = 0.591 | 778.473 | 1111.4
308.15 K, x1 = 0.7 | 764.594 | 1080.2
308.15 K, x1 = 0.799 | 751.361 | 1050.5
308.15 K, x1 = 0.898 | 737.971 | 1020.6
308.15 K, x1 = 0.949 | 731.009 | 1004.7
308.15 K, x1 = 1 | 723.763 | 990.99
310.65 K, x1 = 0.051 | 840.182 | 1245.6
310.65 K, x1 = 0.111 | 833.476 | 1230.9
310.65 K, x1 = 0.199 | 823.333 | 1208.2
310.65 K, x1 = 0.297 | 812.074 | 1182.6
310.65 K, x1 = 0.394 | 800.49 | 1156.1
310.65 K, x1 = 0.5 | 787.456 | 1126.2
310.65 K, x1 = 0.591 | 776.037 | 1100.6
310.65 K, x1 = 0.7 | 762.097 | 1069.3
310.65 K, x1 = 0.799 | 748.806 | 1039.4
310.65 K, x1 = 0.898 | 735.351 | 1009.4
310.65 K, x1 = 0.949 | 728.354 | 993.41
310.65 K, x1 = 1 | 721.069 | 979.62
313.15 K, x1 = 0.051 | 837.972 | 1235.6
313.15 K, x1 = 0.111 | 831.247 | 1220.7
313.15 K, x1 = 0.199 | 821.068 | 1197.8
313.15 K, x1 = 0.297 | 809.766 | 1172.2
313.15 K, x1 = 0.394 | 798.142 | 1145.5
313.15 K, x1 = 0.5 | 785.055 | 1115.5
313.15 K, x1 = 0.591 | 773.588 | 1089.9
313.15 K, x1 = 0.7 | 759.588 | 1058.4
313.15 K, x1 = 0.799 | 746.238 | 1028.3
313.15 K, x1 = 0.898 | 732.717 | 998.27
313.15 K, x1 = 0.949 | 725.685 | 982.13
313.15 K, x1 = 1 | 718.357 | 968.16
315.65 K, x1 = 0.051 | 835.765 | 1225.6
315.65 K, x1 = 0.111 | 829.014 | 1210.5
315.65 K, x1 = 0.199 | 818.798 | 1187.5
315.65 K, x1 = 0.297 | 807.454 | 1161.8
315.65 K, x1 = 0.394 | 795.788 | 1135
315.65 K, x1 = 0.5 | 782.649 | 1104.9
315.65 K, x1 = 0.591 | 771.132 | 1079.1
315.65 K, x1 = 0.7 | 757.069 | 1047.5
315.65 K, x1 = 0.799 | 743.66 | 1017.3
315.65 K, x1 = 0.898 | 730.073 | 987.1
315.65 K, x1 = 0.949 | 723.003 | 970.91
315.65 K, x1 = 1 | 715.636 | 956.8
318.15 K, x1 = 0.051 | 833.554 | 1215.7
318.15 K, x1 = 0.111 | 826.778 | 1200.4
318.15 K, x1 = 0.199 | 816.524 | 1177.3
318.15 K, x1 = 0.297 | 805.138 | 1151.5
318.15 K, x1 = 0.394 | 793.428 | 1124.6
318.15 K, x1 = 0.5 | 780.236 | 1094.3
318.15 K, x1 = 0.591 | 768.668 | 1068.5
318.15 K, x1 = 0.7 | 754.544 | 1036.7
318.15 K, x1 = 0.799 | 741.073 | 1006.4
318.15 K, x1 = 0.898 | 727.417 | 976.02
318.15 K, x1 = 0.949 | 720.308 | 959.76
318.15 K, x1 = 1 | 712.897 | 945.54
320.65 K, x1 = 0.051 | 831.342 | 1205.8
320.65 K, x1 = 0.111 | 824.54 | 1190.3
320.65 K, x1 = 0.199 | 814.248 | 1167.1
320.65 K, x1 = 0.297 | 802.819 | 1141.1
320.65 K, x1 = 0.394 | 791.063 | 1114.2
320.65 K, x1 = 0.5 | 777.817 | 1083.8
320.65 K, x1 = 0.591 | 766.199 | 1057.9
320.65 K, x1 = 0.7 | 752.007 | 1025.9
320.65 K, x1 = 0.799 | 738.474 | 995.49
320.65 K, x1 = 0.898 | 724.747 | 964.93
320.65 K, x1 = 0.949 | 717.599 | 948.61
320.65 K, x1 = 1 | 710.141 | 934.24
323.15 K, x1 = 0.051 | 829.134 | 1196
323.15 K, x1 = 0.111 | 822.307 | 1180.4
323.15 K, x1 = 0.199 | 811.976 | 1157.1
323.15 K, x1 = 0.297 | 800.501 | 1131
323.15 K, x1 = 0.394 | 788.703 | 1103.9
323.15 K, x1 = 0.5 | 775.403 | 1073.3
323.15 K, x1 = 0.591 | 763.728 | 1047.4
323.15 K, x1 = 0.7 | 749.471 | 1015.2
323.15 K, x1 = 0.799 | 735.877 | 984.7
323.15 K, x1 = 0.898 | 722.077 | 954
323.15 K, x1 = 0.949 | 714.887 | 937.58
323.15 K, x1 = 1 | 707.381 | 922.97
